Reference: patent US9670162B2, “Mitochondrial aldehyde dehyrogenase-2 modulators and methods of use thereof” (The Board of Trustees of the Leland Stanford Junior …, priority 2013, dated 2017)
Changes are numbered by the printed parent chain.

Assays:
[1] = biological target: T1, human ALDH2*2 recombinant mutant enzyme (E487K) (Homo sapiens, UniProt P05091, E504K); assay: ALDH2 enzymatic assay (NADH at 340 nm), recombinant mutant enzyme; format: biochemical; parameters: key: −: no activation or inhibition; +: activation less than control 1; ++: activation similar to control 1, within 10%; +++: activation more than control 1 and less than control (compound 161); ++++: activation similar to compound 161, within 10%; settings: activation relative to benchmarks control 1 and compound 161
T1 construct: His-tag (pTrcHis vector) (N); made in house; host or cells: E. coli BL21
T1 sequence (P05091 18-517 E504K): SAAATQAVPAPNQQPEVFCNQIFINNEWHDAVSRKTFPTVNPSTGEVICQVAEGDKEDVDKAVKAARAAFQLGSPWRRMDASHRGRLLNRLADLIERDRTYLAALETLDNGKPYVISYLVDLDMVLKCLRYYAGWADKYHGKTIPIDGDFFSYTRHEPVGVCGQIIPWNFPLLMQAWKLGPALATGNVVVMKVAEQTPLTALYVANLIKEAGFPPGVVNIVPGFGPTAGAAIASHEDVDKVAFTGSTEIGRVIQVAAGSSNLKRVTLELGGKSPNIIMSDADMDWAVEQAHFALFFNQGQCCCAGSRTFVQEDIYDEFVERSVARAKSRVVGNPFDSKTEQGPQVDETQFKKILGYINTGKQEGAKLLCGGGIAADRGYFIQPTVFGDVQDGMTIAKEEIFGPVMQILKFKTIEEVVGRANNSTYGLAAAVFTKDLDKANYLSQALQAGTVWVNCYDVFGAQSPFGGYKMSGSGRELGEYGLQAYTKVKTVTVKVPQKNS

human ALDH2 wild type = biological target: T2, human ALDH2 wild type (Homo sapiens, UniProt P05091); assay: ALDH2 enzymatic assay (NADH at 340 nm), recombinant wild type enzyme; format: biochemical; parameters: key: −: no activation or inhibition; +: activation less than control 1; ++: activation similar to control 1, within 10%; +++: activation more than control 1 and less than control (compound 161); ++++: activation similar to compound 161, within 10%; settings: activation relative to benchmarks control 1 and compound 161
T2 construct: His-tag (pTrcHis vector) (N); made in house; host or cells: E. coli BL21
T2 sequence (P05091 18-517): T1 sequence (P05091 18-517 E504K) with K487E

Aqueous solubility = format: physicochemical
Protocol: (§1) In vitro ADMET of compounds of the present disclosure was carried out according to known methods in the art. Below are data for certain compounds of the present disclosure.

LogD (pH 7.4) = format: physicochemical
Protocol: as §1

HLM stability T1/2 = format: in vitro ADME; settings: human, liver microsomes; read-out: HLM T1/2
Protocol: as §1

RLM stability T1/2 = format: in vitro ADME; settings: rat, liver microsomes
Protocol: as §1

MLM stability T1/2 = format: in vitro ADME; settings: mouse, liver microsomes
Protocol: as §1

NHPLM stability T1/2 = format: in vitro ADME; settings: monkey, liver microsomes
Protocol: as §1

Plasma stability, human = format: in vitro ADME; settings: plasma
Protocol: as §1

Plasma stability, rat = format: in vitro ADME
Protocol: as §1

CYP3A4 = CYP3A4 (Homo sapiens, UniProt P08684); assay: Cyp inhibition 3A4; format: in vitro ADME; settings: 10 μM
Protocol: as §1

CYP2C9 = CYP2C9 (Homo sapiens, UniProt P11712); assay: Cyp inhibition 2C9; format: in vitro ADME
Protocol: as §1

CYP2C19 = CYP2C19 (Homo sapiens, UniProt P33261); assay: Cyp inhibition 2C19; format: in vitro ADME; settings: 10 μM
Protocol: as §1

CYP2D6 = CYP2D6 (Homo sapiens, UniProt P10635); assay: Cyp inhibition 2D6; format: in vitro ADME
Protocol: as §1

CYP1A2 = biological target: T3, CYP1A2 (Homo sapiens, UniProt P05177); assay: Cyp inhibition 1A2; format: in vitro ADME; settings: 10 μM
T3 sequence (P05177 1-516): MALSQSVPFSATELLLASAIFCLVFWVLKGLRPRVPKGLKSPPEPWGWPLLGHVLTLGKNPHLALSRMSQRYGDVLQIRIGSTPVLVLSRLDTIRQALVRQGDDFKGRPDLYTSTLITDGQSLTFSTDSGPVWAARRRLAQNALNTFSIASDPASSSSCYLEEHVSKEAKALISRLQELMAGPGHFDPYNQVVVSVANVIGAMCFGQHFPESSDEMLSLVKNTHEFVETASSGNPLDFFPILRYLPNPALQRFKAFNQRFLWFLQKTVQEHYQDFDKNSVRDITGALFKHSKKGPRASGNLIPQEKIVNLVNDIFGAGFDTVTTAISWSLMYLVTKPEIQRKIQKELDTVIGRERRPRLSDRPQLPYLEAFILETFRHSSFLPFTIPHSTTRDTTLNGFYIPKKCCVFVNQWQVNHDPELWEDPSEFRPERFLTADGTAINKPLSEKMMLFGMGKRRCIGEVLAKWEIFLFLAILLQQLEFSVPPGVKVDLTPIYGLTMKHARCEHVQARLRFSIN
Protocol: as §1

Caco-2 permeability = format: in vitro ADME; settings: human; for Papp A→B: read-out: Caco-2 Papp A-B; for efflux ratio: read-out: Caco-2 Papp B-A/A-B
Protocol: as §1

[2] = Plasma protein binding (PPB), human; format: in vitro ADME
Protocol: as §1

[3] = Plasma protein binding (PPB), rat; format: in vitro ADME
Protocol: as §1

CYP2D6, sequence (P10635 whole entry): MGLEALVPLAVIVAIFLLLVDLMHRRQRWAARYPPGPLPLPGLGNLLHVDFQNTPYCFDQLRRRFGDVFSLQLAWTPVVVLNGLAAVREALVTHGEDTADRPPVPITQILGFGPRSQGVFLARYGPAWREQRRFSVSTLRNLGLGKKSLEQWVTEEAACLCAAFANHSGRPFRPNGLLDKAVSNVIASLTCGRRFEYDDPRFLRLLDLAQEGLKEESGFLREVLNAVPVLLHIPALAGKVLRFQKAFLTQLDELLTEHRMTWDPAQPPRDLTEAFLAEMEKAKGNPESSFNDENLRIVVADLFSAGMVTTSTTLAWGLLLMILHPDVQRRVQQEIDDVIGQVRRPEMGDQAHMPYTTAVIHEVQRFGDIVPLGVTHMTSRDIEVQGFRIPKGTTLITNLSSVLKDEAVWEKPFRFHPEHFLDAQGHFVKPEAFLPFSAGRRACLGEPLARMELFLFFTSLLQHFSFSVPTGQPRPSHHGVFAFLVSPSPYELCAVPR
CYP2C19, sequence (P33261 whole entry): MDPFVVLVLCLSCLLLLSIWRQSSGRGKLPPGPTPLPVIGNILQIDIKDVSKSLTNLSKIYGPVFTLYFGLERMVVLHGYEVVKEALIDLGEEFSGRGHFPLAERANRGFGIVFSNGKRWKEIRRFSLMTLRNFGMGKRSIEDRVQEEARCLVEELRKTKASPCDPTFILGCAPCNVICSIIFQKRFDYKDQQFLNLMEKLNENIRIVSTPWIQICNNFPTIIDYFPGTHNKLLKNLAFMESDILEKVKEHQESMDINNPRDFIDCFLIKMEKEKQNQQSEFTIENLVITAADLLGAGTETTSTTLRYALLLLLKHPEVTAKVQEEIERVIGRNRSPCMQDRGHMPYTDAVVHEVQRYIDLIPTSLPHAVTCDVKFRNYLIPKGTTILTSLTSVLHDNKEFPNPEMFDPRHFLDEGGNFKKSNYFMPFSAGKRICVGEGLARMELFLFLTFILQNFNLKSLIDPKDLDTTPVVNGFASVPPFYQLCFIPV
CYP3A4, sequence (P08684 whole entry): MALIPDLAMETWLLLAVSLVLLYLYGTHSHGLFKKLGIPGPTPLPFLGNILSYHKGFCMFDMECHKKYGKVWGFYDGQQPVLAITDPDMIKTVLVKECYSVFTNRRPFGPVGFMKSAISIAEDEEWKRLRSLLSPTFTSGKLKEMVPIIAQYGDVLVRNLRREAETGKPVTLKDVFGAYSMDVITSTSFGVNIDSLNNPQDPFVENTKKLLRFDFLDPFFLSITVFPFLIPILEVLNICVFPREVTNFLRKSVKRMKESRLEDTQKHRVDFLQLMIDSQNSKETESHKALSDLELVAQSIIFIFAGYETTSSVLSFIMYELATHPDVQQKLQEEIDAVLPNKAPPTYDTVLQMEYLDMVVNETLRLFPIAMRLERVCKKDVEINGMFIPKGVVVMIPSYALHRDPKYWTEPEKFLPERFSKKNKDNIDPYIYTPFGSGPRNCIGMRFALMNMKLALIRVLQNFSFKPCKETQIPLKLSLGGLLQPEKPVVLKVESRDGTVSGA
CYP2C9, sequence (P11712 whole entry): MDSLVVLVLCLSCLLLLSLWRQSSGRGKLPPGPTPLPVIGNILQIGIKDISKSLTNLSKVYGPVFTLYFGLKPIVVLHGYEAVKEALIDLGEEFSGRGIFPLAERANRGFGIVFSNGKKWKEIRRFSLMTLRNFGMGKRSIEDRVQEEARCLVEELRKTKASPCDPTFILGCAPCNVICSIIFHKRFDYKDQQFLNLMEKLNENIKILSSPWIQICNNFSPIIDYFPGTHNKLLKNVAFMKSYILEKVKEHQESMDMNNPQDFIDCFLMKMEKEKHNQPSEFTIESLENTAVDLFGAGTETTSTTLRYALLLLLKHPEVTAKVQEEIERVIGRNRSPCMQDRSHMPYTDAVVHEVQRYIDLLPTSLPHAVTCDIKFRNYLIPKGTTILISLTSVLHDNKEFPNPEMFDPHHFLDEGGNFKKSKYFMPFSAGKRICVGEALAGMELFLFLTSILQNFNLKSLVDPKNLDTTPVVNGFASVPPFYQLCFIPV

Structure (SMILES)	ALDH2 (mutant) [1]	ALDH2 (wild-type) (human ALDH2 wild type)	Aqu. Solu. (Aqueous solubility) [µg/mL]	logD (LogD (pH 7.4))	half-life (HLM stability T1/2) [min]	half-life (RLM stability T1/2) [min]	half-life (MLM stability T1/2) [min]	half-life (NHPLM stability T1/2) [min]	Plasma stability Human (Plasma stability, human) [%]	Plasma stability Rat (Plasma stability, rat) [%]	inhibition at 10 µM (CYP3A4) [%]	inhibition at 10 µM (CYP2C9) [%]	inhibition at 10 µM (CYP2C19) [%]	inhibition at 10 µM (CYP2D6) [%]	inhibition at 10 µM (CYP1A2) [%]	Papp A→B (Caco-2 permeability) [×10⁻⁶ cm/s]	Papp B→A (Caco-2 permeability) [×10⁻⁶ cm/s]	efflux ratio (Caco-2 permeability)	fraction unbound [2]	fraction unbound [3]
O=C(NCc1ccc2ncsc2c1)c1c(Cl)ccnc1OCC1CC1 [Compound 264]	−	−																		
COc1cc(F)c(CNC(=O)c2c(Cl)ccnc2OCC(C)C)cc1F [Compound 269]	++++	++++																		
O=C(NCc1ccc2c(c1)OCO2)c1c(Cl)cccc1Cl [Control 1, reference compound]	++	++	12	3.4	21.2	1.33	0.753	1.57	100	100	83.5	16.3	72.4	9.1	31.9	16.6	11.7	0.7	0.025	0.037

More lines, now with the values ahead:

ALDH2 (mutant) [1]	ALDH2 (wild-type) (human ALDH2 wild type)	Aqu. Solu. (Aqueous solubility) [µg/mL]	logD (LogD (pH 7.4))	half-life (HLM stability T1/2) [min]	half-life (RLM stability T1/2) [min]	half-life (MLM stability T1/2) [min]	half-life (NHPLM stability T1/2) [min]	Plasma stability Human (Plasma stability, human) [%]	Plasma stability Rat (Plasma stability, rat) [%]	inhibition at 10 µM (CYP3A4) [%]	inhibition at 10 µM (CYP2C9) [%]	inhibition at 10 µM (CYP2C19) [%]	inhibition at 10 µM (CYP2D6) [%]	inhibition at 10 µM (CYP1A2) [%]	Papp A→B (Caco-2 permeability) [×10⁻⁶ cm/s]	Papp B→A (Caco-2 permeability) [×10⁻⁶ cm/s]	efflux ratio (Caco-2 permeability)	fraction unbound [2]	fraction unbound [3]	Structure (SMILES)
++++	++++	5	3.8	2.67	0.753	0.753	0.685													COc1ccc(CNC(=O)c2c(Cl)cccc2OCC2CC2)cc1F [Compound 135]
++	+	272	1.6	3.85	82.5	100	51.3	100	100	7.7	-12	3.5	0.81	1.1	1.22	13.1	10.7	0.098	0.367	COc1ccc(CNC(=O)c2c(Cl)cc[n+]([O-])c2OCC2CC2)cc1F [Compound 169]
+	+																			Cc1nc2ccc(CNC(=O)c3c(Cl)ccnc3OCC3CC3)cc2[nH]1 [Compound 261]
+	+																			COc1ccc(CNC(=O)c2c(Cl)ccn(C)c2=O)cc1F [Compound 273]
